Values joined by “and” are separate entries in the source; they are usually repeats but may differ in a detail not shown here. Identical values can stand only once.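 Test compounds were applied to cells in 96-well plates for 48 hours at 5 doses. Abbreviation: GI50, concentration required for 50% inhibition of growth. At the TGI there is no net growth.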
How the values were obtained:
Assay in all cases: NCI anticancer screen, dose series, 48 h
[1] = system: HL-60(TB) leukemia
[2] = system: SF-268 CNS
[3] = system: COLO 205 colon
[4] = system: SK-MEL-28 melanoma
[5] = system: 786-0 renal
[6] = system: A549 NSCLC
[7] = system: RPMI-8226 leukemia
[8] = system: NCI-H226 lung
[9] = system: OVCAR-4 ovarian
[10] = system: UACC-62 melanoma

SMILES	TGI [1]	TGI [2]	TGI [3]	TGI [4]	TGI [5]	TGI [6]	TGI [7] [µM]	TGI [8]	TGI [9]	TGI [10] [µM]	GI50 [8] [µM]	GI50 [2] [µM]	GI50 [3]	GI50 [4] [µM]	GI50 [5]	GI50 [6]	GI50 [9] [µM]	GI50 [7] [µM]	GI50 [10] [µM]	GI50 [1]
[O-]/[N+](=C\c1ccccc1)[C@H](COCc1ccccc1)c1ccccc1	62.1 µM	> 100 µM	> 100 µM	> 100 µM	> 100 µM	> 100 µM	> 100	–	–	–	–	–	–	–	–	–	–	–	–	–
CC[P+](C)(Cc1ccccc1)c1ccccc1 (stereo not drawn)	> 100 µM	–	> 100 µM	> 100 µM	> 100 µM	> 100 µM	> 100	> 100 µM	> 100 µM	> 100	–	–	–	–	–	–	–	–	–	–
O=C(c1ccccc1)c1c(NCC(O)CN2CCCC2)n(Cc2ccccc2)c(=O)n(Cc2ccccc2)c1=O (stereo not drawn)	–	40.8 µM	31.2 µM	32.3 µM	35.5 µM	> 100 µM	48.4	48.4 µM	57.1 µM	33.2	18.6	19.6	16.2 µM	17.6	18.9 µM	32.3 µM	23.9	19.3	17.4	–
Nc1nc(CCC(=O)Nc2cccc(C(F)(F)F)c2)cc(-c2cccc3ccccc23)n1	> 100 µM	> 100 µM	> 100 µM	> 100 µM	> 100 µM	> 100 µM	–	> 100 µM	> 100 µM	> 100	–	–	–	–	–	–	–	–	–	–
CC(C)(C)OC(=O)NCCNC1=CC(=O)c2nc3ccccc3c3ccnc1c23	> 100 µM	77.1 µM	34.7 µM	28.9 µM	> 100 µM	> 100 µM	–	52.8 µM	67.6 µM	43.2	21.1	18.7	12.7 µM	13.3	28.5 µM	18.4 µM	24.3	–	19.6	12.2 µM
CCC1(C)NN=c2s/c(=C/c3ccc(OC)cc3)c(=O)n2N1 (stereo not drawn)	–	> 100 µM	> 100 µM	> 100 µM	> 100 µM	> 100 µM	–	> 100 µM	> 100 µM	> 100	–	–	–	–	–	–	–	–	–	–
CC1[C@@H]2[C@@H](C=C3C4CCC5Cc6nc7c(nc6C[C@@]5(C)C4C[C@H](O)[C@]32CO)CC2CCC3C4=C[C@H]5O[C@@]6(O[C@@](C)(CO)C[C@@H]6O)C(C)[C@@]5(O)[C@]4(C)[C@@H](O)CC3[C@]2(C)C7)O[C@]12CCC(C)(C)O2 (stereo partly drawn)	0.496 µM	0.945 µM and 0.0972 µM	0.566 µM and 0.138 µM	0.238 µM	0.534 µM	0.919 µM and > 3.65 µM	–	0.543 µM and > 3.65 µM	–	0.0745	0.00626	0.00304	0.0423 µM	–	–	0.00602 µM	–	< 0.000365	0.00489	–
NNC(=S)N/N=C(\CCCC(=O)NCCc1ccccc1)CC(=O)c1ccccc1	> 100 µM	> 100 µM	> 100 µM	> 100 µM	> 100 µM	> 100 µM	–	–	> 100 µM	> 100	–	–	–	–	–	–	–	–	–	–
CN(C)c1ccc2c(c1)C(=O)N(OS(=O)(=O)c1ccc([N+](=O)[O-])cc1)C2=O	76 µM	80.8 µM	54.6 µM	63.9 µM	47.9 µM	> 100 µM	–	> 100 µM	31.5 µM	31.8	–	–	–	–	–	–	–	–	–	–
O=C(O)CN(c1ccccc1)S(=O)(=O)c1ccc(NC(=O)c2ccccc2)cc1	> 100 µM	> 100 µM	> 100 µM	> 100 µM	> 100 µM	> 100 µM	> 100	–	> 100 µM	> 100	–	–	–	–	–	–	–	–	–	–
C=CCC1OC(C)(C)Oc2ccc(OCOCCOC)cc21 (stereo not drawn)	–	> 100 µM	–	> 100 µM	> 100 µM	> 100 µM	–	–	> 100 µM	> 100	–	–	–	–	–	–	–	–	–	–
COc1ccc(/C=C2\CN(C)Cc3c2nc(N)nc3-c2ccc(OC)cc2)cc1	85.2 µM	> 100 µM	> 100 µM	> 100 µM	> 100 µM	> 100 µM	> 100	> 100 µM	–	> 100	–	–	–	–	–	–	–	–	–	–
CN1CCc2cc3c(cc2C1O)OCO3 (stereo not drawn)	69.9 µM and > 100 µM	30.8 µM and > 100 µM	31.8 µM and > 100 µM	22.3 µM and > 100 µM	34.5 µM and > 100 µM	31.6 µM and > 100 µM	> 100	–	13.7 µM and > 100 µM	–	–	–	13.5 µM and > 100 µM	–	17.6 µM and > 100 µM	15.9 µM and > 100 µM	–	–	–	28.8 µM and > 100 µM
NS(=O)(=O)c1ccc(NC(=O)c2ccc(NC3=C(Cl)C(=O)N(Cc4ccccc4)C3=O)cc2)cc1	–	> 100 µM	> 100 µM	> 100 µM	12.5 µM	> 100 µM	–	5.91 µM	> 100 µM	–	2.12	7.25	15.1 µM	4.16	3.38 µM	29.1 µM	13.7	–	–	–
CCC[CH2][Sn]([CH2]CCC)([O]C(=O)c1c(F)cccc1F)[O]C(=O)c1c(F)cccc1F	> 100 µM	1.83 µM	1.74 µM	1.87 µM	2 µM	11 µM	–	3.32 µM	2.55 µM	2.1	1.89	0.565	0.574 µM	0.599	0.768 µM	3.12 µM	1.28	–	0.884	0.378 µM
c1ccc(SC2(Sc3ccccc3)CCCC2)cc1	> 100 µM	> 100 µM	> 100 µM	> 100 µM	> 100 µM	> 100 µM	> 100	–	> 100 µM	> 100	–	–	–	–	–	–	–	–	–	–
O=P([O-])(O)OP(=O)([O-])O.[NH-][C@H]1CCCC[C@@H]1[NH-].[OH-].[OH-].[Pt+4]	–	46.8 µM	> 100 µM	> 100 µM	76.2 µM	–	> 100	55 µM	> 100 µM	92.2	23.2	20.9	88.2 µM	31.5	29.5 µM	–	71.2	> 100	22	–

Source: PubChem BioAssay (NCI)
